Assay results reported in article PMC3038857, “Using Nuclear Receptor Activity to Stratify Hepatocarcinogens” (PLoS ONE, 2011).
Read-outs that look alike come from different tables or passages of the source.

Assays:
[1] = tested on: cytochrome P-450 in the 2B subfamily; settings: mouse, in vivo; cited from earlier work
[2] = tested on: AhR, CAR, PXR, PPAR, LXR, SR and RXR
[3] = tested on: SR (steroid receptor-like); test: Aggregate nuclear receptor activity: SR; settings: aggregate human NR activity, in words
Source text: (§1) To summarize the activity of chemicals across the NR superfamily we aggregated the ToxCast assays for genes and NR groups as follows: retinoic X receptor-like (RXR; [drawing 5]; NR2B); peroxisome proliferator-activated receptor-like (PPAR; [drawing 6]; NR1C); constitutive androstane receptor ( [drawing 7]; [drawing 8]; [drawing 9] ); pregnane X receptor ( [drawing 10]; [drawing 11] ); liver X receptor-like (LXR; [drawing 12] , FXR; NR1H); and steroid receptor-like (SR; [drawing 13] , [drawing 14] , [drawing 15] ). These are shown visually in Figure 1(a). As there were differences in the number and types of assays for each group, aggregate activity was calculated as the average potency across the assays measured by the AC50 or LEC (described in Methods). This approach aggregated NR binding, activation, agonism or antagonism results into a single assessment of activity.
(§2) All data used in this analysis are publicly available from the ToxCast website (www.epa.gov/toxcast). The analysis was conducted using the R statistical language (www.r-project.org). For each chemical [drawing 77] , and assay [drawing 78] combination we derived either the AC50 (50% maximal activity concentration) or LEC (Lowest Effective Concentration) in [drawing 79] M denoted as, [drawing 80] . All chemicals are provided in Dataset S3 and all assays are given in Dataset S1. The procedure for evaluating the quality of [drawing 81] are described in the supplementary methods (Text S1) and all assay results are provided in Dataset S2. In order to facilitate comparison across the assays the [drawing 82] were transformed by the formula, [drawing 83] where [drawing 84] represents a the potency on an ascending scale, and [drawing 85] is the maximum concentration (lowest potency) across the data set.
(§3) The aggregate NR activity [drawing 86] , where [drawing 87] , was calculated using assays [drawing 88] . The aggregate scaled NR activity score for each chemical [drawing 89] was calculated as the average concentration value across the assays, scaled by the maximum value across all chemicals using Equation 1. [drawing 90] (1)

AhR = test: Aggregate nuclear receptor activity: AhR; settings: aggregate human NR activity, in words
Source text: as §1, §2, §3

CAR = test: Aggregate nuclear receptor activity: CAR; settings: aggregate human NR activity, in words
Source text: as §1, §2, §3

liver [4] = test: Cancer lesion progression: 2-year chronic rat and mouse liver histopathology (ToxRefDB), lesion progression groups (LPG); settings: liver lesions after 2-year chronic treatment, ToxRefDB data clustered into groups I-VIII
PPAR [5] = tested on: PPAR; parameters: method as in PMID 17084873; settings: in rats; cited from earlier work
PXR = test: Aggregate nuclear receptor activity: PXR; parameters: species or system human
Source text: as §1, §2, §3

PPAR [6] = test: Aggregate nuclear receptor activity: PPAR; settings: aggregate human NR activity, in words
Source text: as §1, §2, §3

LXR = test: Aggregate nuclear receptor activity: LXR; settings: aggregate human NR activity, in words
Source text: as §1, §2
The aggregate NR activity [drawing 86] , where [drawing 87] , was calculated using assays [drawing 88] . The aggregate scaled NR activity score for each chemical [drawing 89] was calculated as the average concentration value across the assays, scaled by the maximum value across all chemicals using Equation 1. [drawing 90] […]

liver [7] = settings: in vivo
human PXR = tested on: human PXR; parameters: method as in PMID 16565514; settings: cited from earlier work
SR = settings: cited from earlier work
[8] = aggregate human NR activity, in words

Compound | activity with SR [3] | activity with AhR (AhR) | activity with CAR (CAR) | activity with PXR (PXR; [8]) | activity with PPAR (PPAR [6]) | activity with LXR (LXR) | lesion progression group (LPG) (liver [7]) | further results
CC(C1CC1)C(O)(Cn1cncn1)c1ccc(Cl)cc1 (stereo not shown) [Cyproconazole, 2-(4-chlorophenyl)-3-cyclopropyl-1-(1H-1,2,4-triazol-1-yl)butan-2-ol] | – | – | – | – | – | – | – | expression of a cytochrome P-450 in the 2B subfamily [1]: induce expression
CCCCOC(=O)c1ccccc1C(=O)OCCCC [Dibutyl phthalate, dibutyl phthalate] | – | – | – | – | – | – | – | overall NR activity [2]: low NR activity
COC(=O)C(C)Oc1ccc(Oc2ccc(Cl)cc2Cl)cc1 (stereo not shown) [Diclofop-methyl, methyl 2-[4-(2,4-dichlorophenoxy)phenoxy]propanoate] | some activity | some activity | some activity | some activity | most consistently active | – | – | lesion progression group (LPG) (liver [4]): I; PPAR activity (PPAR [5]): active
N#Cc1c[nH]cc1-c1cccc2c1OC(F)(F)O2 [Fludioxonil, 4-(2,2-difluoro-1,3-benzodioxol-4-yl)-1H-pyrrole-3-carbonitrile] | less frequently | – | – | consistently active | less frequently | less frequently | – | –
CCOC(=O)C(C)OC(=O)c1cc(Oc2ccc(C(F)(F)F)cc2Cl)ccc1[N+](=O)[O-] (stereo not shown) [Lactofen, 2-ethoxy-1-methyl-2-oxoethyl 5-[2-chloro-4-(trifluoromethyl)phenoxy]-2-nitrobenzoate] | less frequently | consistently active | consistently active | – | less frequently | less frequently | I | activity with PXR (PXR): consistently active
CC(C)Oc1cc(-n2nc(C(C)(C)C)oc2=O)c(Cl)cc1Cl [Oxadiazon, 5-tert-butyl-3-(2,4-dichloro-5-isopropoxyphenyl)-1,3,4-oxadiazol-2(3H)-one] | less frequently | consistently active | consistently active | consistently active | less frequently | less frequently | I | human PXR activity (human PXR): known human PXR activity
C=CC1(C)OC(=O)N(c2cc(Cl)cc(Cl)c2)C1=O (stereo not shown) [Vinclozolin, 3-(3,5-dichlorophenyl)-5-methyl-5-vinyl-1,3-oxazolidine-2,4-dione] | some activity | some activity | – | – | most consistently active | – | I | SR activity (SR): known SR active; activity with PXR (PXR): some activity
